Patent US20120245344A1 (NIPPON CHEMIPHAR CO., LTD., priority 2009, published 2012)

What follows are compounds tested against T1, human GPR119 (Homo sapiens, UniProt Q8TDV5) (assay: Measurement of intracellular cAMP in stable cell line expressing human GPR119 (GPR119 agonist effect)). Conditions: increase of intracellular cAMP, Flp-in T-Rex-293 cells expressing human GPR119, 37° C. for 30 minutes.
T1 construct: expressed in transfected cells; host or cells: Flp-in T-Rex-293 cells (Invitrogen #R78007), plasmid pcDNA5/FRT/TO, expression induced with tetracycline
T1 sequence (Q8TDV5 1-335): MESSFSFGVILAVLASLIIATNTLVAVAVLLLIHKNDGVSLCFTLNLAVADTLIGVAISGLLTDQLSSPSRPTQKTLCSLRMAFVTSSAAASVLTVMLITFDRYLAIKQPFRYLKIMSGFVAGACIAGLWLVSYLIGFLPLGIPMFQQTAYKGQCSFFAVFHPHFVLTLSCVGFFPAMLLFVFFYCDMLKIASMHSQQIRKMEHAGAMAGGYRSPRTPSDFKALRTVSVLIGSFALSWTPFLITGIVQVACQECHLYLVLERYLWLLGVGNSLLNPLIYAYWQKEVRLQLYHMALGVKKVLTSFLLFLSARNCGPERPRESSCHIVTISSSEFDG
Type: cell-based
Text: The GPR119 agonist effect is studied by measuring the effect of an analyte on increase of intracellular amount of cAMP in human GPR119 introduced cells. The testing method is described below.
Human GPR119 gene (NM 178471) is purchased from ATCC (ATCC No. 10807349), and is amplyfied according to PCR to form BamHI site at 5′ side and Apa I site at 3′ side. The primers are […] (sequence No. 1) and […] (sequence No. 2). The PCR conditions are described below.
The double-stranded DNA is thermally denatured using a DNA polymerase (KOD-Plus-Ver. 2; TOYOBO #KOD-211) at 98° C. for 10 seconds in one cycle. The denatured single-stranded DNA is annealed with the primers at 55° C. for 30 seconds. The DNA is subjected to an extension reaction at 68° C. for 1 minute and 15 seconds. The above-mentioned steps are repeated in 35 cycles. The PCR product is inserted into pcDNA5/FRT/TO (Invitrogen #V6520-20) plasmid. Flp-in T-Rex-293 cells (Invitorogen #R78007) are transfected with the obtained plasmid. The method of transfection is conducted in accordance with the protocol of the product.
(§1) The stable cell line expressing human GPR119 prepared in the above-mentioned method is plated on a 96-well plate at the concentration of 2,500 cells/well using Dulbecco's Modified Eagle Medium (DMEM) containing 10% fetal bovine serum (FBS). Twenty-four hours after plating, tetracyclin (Invitrogen #Q10019) is added at the final concentration of 20 ng/mL to induce hGPR119 gene expression. Twenty-four hours after, the medium is removed, and the cells are stimulated with an assay buffer (0.5 mM IBMX PBS (−)) containing the test compound at 37° C. for 30 minutes. The amount of the intracellular cAMP is measured using a commercially available kit (HitHunter™ cAMP XS+Assay: GE Healthcare #90007503) and a reader (FLUOstar Optima: BMG LABTECH). The test compound is dissolved in 100% DMSO, and added at the final concentration of 1%.
Human GPR119 gene (NM 178471) was purchased from ATCC (ATCC No. 10807349), and is amplyfied according to PCR to form BamHI site at 5′ side and Apa I site at 3′ side. The primers were […] (sequence No. 1) and […] (sequence No. 2). The PCR conditions are described below. The double-stranded DNA was thermally denatured using a DNA polymerase (KOD-Plus-Ver. 2; TOYOBO #KOD-211) at 98° C. for 10 seconds in one cycle. The denatured single-stranded DNA was annealed with the primers at 55° C. for 30 seconds. The DNA was subjected to an extension reaction at 68° C. for 1 minute and 15 seconds. The above-mentioned steps were repeated in 35 cycles. The PCR product was inserted into pcDNA5/FRT/TO (Invitrogen #V6520-20) plasmid. Flp-in T-Rex-293 cells (Invitorogen #R78007) were transfected with the obtained plasmid. The method of transfection was conducted in accordance with the protocol of the product.
as §1, with “method was” for “method is”, “#Q10019) was” for “#Q10019) is”, “medium was” for “medium is”, “cells were” for “cells are”, “cAMP was” for “cAMP is”, “compound was” for “compound is”
The examination was performed by the method similar to Example 87 Pharmacological experiment 1-(1), -(2).

Row | SMILES | EC50
1 | CC(C)(C)OC(=O)N1CCC(c2ccc(Cn3ccc4cc(S(C)(=O)=O)cc(N)c43)nc2)CC1 [Example 19, tert-Butyl 4-[2-(7-amino-5-methanesulfonylindol-1-ylmethyl)pyridin-5-yl]piperidine-1-carboxylate] | 181 nM
2 | CCc1cnc(N2CCC(c3ccc(Cn4ccc5cc(-n6cnnn6)ccc54)nc3)CC2)nc1 [Example 33, 5-Ethyl-2-[4-[2-[5-(tetrazol-1-yl)indol-1-ylmethyl]pyridin-5-yl]piperidin-1-yl]pyrimidine] | 15.5 nM
3 | CC(C)(C)OC(=O)N1CCC(c2ccc(CN3CCc4cc(-n5cnnn5)cc(F)c43)nc2)CC1 [Example 38, tert-Butyl 4-[2-[7-fluoro-5-(tetrazol-1-yl)indolin-1-ylmethyl]pyridin-5-yl]piperidine-1-carboxylate] | 5.4 nM
4 | C[C@H]1CC(c2ccc(Cn3ccc4cc(S(C)(=O)=O)ccc43)nc2)C[C@H](C)N1C(=O)OC(C)(C)C (stereo partly drawn) [Example 69, tert-Butyl (2S,6S)-2,6-dimethyl-4-[2-(5-methanesulfonylindol-1-ylmethyl)pyridin-5-yl]piperidine-1-carboxylate] | 17.5 nM
5 | CC(C)(C)OC(=O)N1CCC(c2ccc(Cn3ccc4c(F)c(S(C)(=O)=O)cc(F)c43)nc2)CC1 [Example 42, tert-Butyl 4-[2-(4,7-difluoro-5-methanesulfonylindol-1-ylmethyl)pyridin-5-yl]piperidine-1-carboxylate] | 22.9 nM
6 | CC(C)(C)OC(=O)N1CCC(c2ccc(Cn3ccc4cc(S(C)(=O)=O)cc([N+](=O)[O-])c43)nc2)CC1 [Example 18, tert-Butyl 4-[2-(5-methanesulfonyl-7-nitroindol-1-ylmethyl)pyridin-5-yl]piperidine-1-carboxylate] | 25.6 nM
7 | CCc1cnc(N2CCC(c3ccc(Cn4ccc5cc(S(C)(=O)=O)c(F)cc54)nc3)CC2)nc1 [Example 32, 5-Ethyl-2-[4-[2-(6-fluoro-5-methanesulfonylindol-1-ylmethyl)pyridin-5-yl]piperidin-1-yl]pyrimidine] | 52 nM
8 | CC(C)OC(=O)N1CC=C(c2ccc(Cn3ccc4cc(-n5cnnn5)cc(F)c43)nc2)C(C)C1 (stereo not shown) [Example 67, Isopropyl 4-[2-[7-fluoro-5-(tetrazol-1-yl)indol-1-ylmethyl]pyridin-5-yl]-3-methyl-3,6-dihydro-2H-pyridine-1-carboxylate] | 45.9 nM
9 | CCc1cnc(N2CCC(c3ccc(Cn4ccc5cc(S(C)(=O)=O)cc(F)c54)nc3)CC2)nc1 [Example 34, 5-Ethyl-2-[4-[2-(7-fluoro-5-methanesulfonylindol-1-ylmethyl)pyridin-5-yl]piperidin-1-yl]pyrimidine] | 30.4 nM
10 | CC(C)(C)OC(=O)N1CCC(c2cnc(Cn3ccc4cc(S(C)(=O)=O)ccc43)c(Cl)c2)CC1 [Example 14, tert-Butyl 4-[3-chloro-2-(5-methanesulfonylindol-1-ylmethyl)pyridin-5-yl]piperidine-1-carboxylate] | 9.5 nM
11 | CC(C)(C)OC(=O)N1CCC(F)(c2ccc(Cn3ccc4cc(S(C)(=O)=O)ccc43)nc2)CC1 [Example 76, tert-Butyl 4-fluoro-4-[2-(5-methanesulfonylindol-1-ylmethyl)pyridin-5-yl]piperidine-1-carboxylate] | 42.6 nM
12 | CC(C)(C)OC(=O)N1CCCC(c2ccc(Cn3ccc4cc(S(C)(=O)=O)ccc43)nc2)CC1 (stereo not shown) [Example 51] | 115 nM
13 | CC(C)(C)OC(=O)N1CCC(c2ccc(Cn3ccc4cc(S(C)(=O)=O)ccc43)nc2)C1 (stereo not shown) [Example 50, tert-Butyl 3-[2-(5-methanesulfonylindol-1-ylmethyl)pyridin-5-yl]pyrrolidine-1-carboxylate] | 375 nM
14 | C[C@H]1C=C(c2ccc(Cn3ccc4cc(S(C)(=O)=O)ccc43)nc2)C[C@H](C)N1C(=O)OC(C)(C)C [Example 68, tert-Butyl (2S,6S)-2,6-dimethyl-4-[2-(5-methanesulfonylindol-1-ylmethyl)pyridin-5-yl]-3,6-dihydro-2H-pyridine-1-carboxylate] | 96.8 nM

The remaining compounds from weak to strong by EC50, led by results:

Row | EC50 | SMILES
15 | 458 nM | CC(C)(C)OC(=O)N1CCC(c2ccc(Cn3cc4cc(S(C)(=O)=O)ccc4n3)nc2)CC1 [Example 22, tert-Butyl 4-[2-(5-methanesulfonylindazol-2-ylmethyl)pyridin-5-yl]piperidine-1-carboxylate]
16 | 297 nM | CC(C)(C)OC(=O)N1CCC(c2ccc(Cn3ccc4cc(S(C)(=O)=O)cc(C(F)(F)F)c43)nc2)CC1 [Example 49, tert-Butyl 4-[2-(5-methanesulfonyl-7-trifluoromethylindol-1-ylmethyl)pyridin-5-yl]piperidine-1-carboxylate]
17 | 51.3 nM | CC(C)(C)OC(=O)N1CCC(c2ccc(Cn3ccc4c(F)c(S(C)(=O)=O)ccc43)nc2)CC1 [Example 23, tert-Butyl 4-[2-(4-fluoro-5-methanesulfonylindol-1-ylmethyl)pyridin-5-yl]piperidine-1-carboxylate]
18 | 32.4 nM | CCC1CN(C(=O)OC(C)(C)C)CC=C1c1ccc(Cn2ccc3cc(S(C)(=O)=O)ccc32)nc1 (stereo not shown) [Example 73, tert-Butyl 3-ethyl-4-[2-(5-methanesulfonylindol-1-ylmethyl)pyridin-5-yl]-3,6-dihydro-2H-pyridine-1-carboxylate]
19 | 18.5 nM | CC(C)(C)OC(=O)N1CCC(c2ccc(Cn3ccc4cc(-n5cnnn5)ccc43)nc2)CC1 [Example 20, tert-Butyl 4-[2-[5-(tetrazol-1-yl)indol-1-ylmethyl]pyridin-5-yl]piperidine-1-carboxylate]
20 | 13.9 nM | CC(C)(C)OC(=O)N1CCC(c2ccc(Cn3ccc4cc(S(C)(=O)=O)cc(Cl)c43)nc2)CC1 [Example 27, tert-Butyl 4-[2-(7-chloro-5-methanesulfonylindol-1-ylmethyl)pyridin-5-yl]piperidine-1-carboxylate]
21 | 13.1 nM | Cc1cc(C2CCN(C(=O)OC(C)(C)C)CC2)cnc1Cn1ccc2cc(-n3cncn3)ccc21 [Example 58, tert-Butyl 4-[3-methyl-2-[5-(1,2,4-triazol-1-yl)indol-1-ylmethyl]pyridin-5-yl]piperidine-1-carboxylate]
22 | 11.7 nM | CCc1cnc(N2CCC(c3ccc(Cn4ccc5cc(S(C)(=O)=O)ccc54)nc3)CC2)nc1 [Example 30, 5-Ethyl-2-[4-[2-(5-methanesulfonylindol-1-ylmethyl)pyridin-5-yl]piperidin-1-yl]pyrimidine]
23 | 3.7 nM | CC(C)(C)OC(=O)N1CCC(c2ccc(Cn3ccc4cc(-n5cnnn5)cc(F)c43)nc2)CC1 [Example 41, tert-Butyl 4-[2-[7-fluoro-5-(tetrazol-1-yl)indol-1-ylmethyl]pyridin-5-yl]piperidine-1-carboxylate]

Same assay, conditions: statement in words on Tables 10 to 13

Row | GPR119 agonist effect (in words) | SMILES
24 | excellent GPR119 agonist effect | CC(C)(C)OC(=O)N1CCC(c2ccc(CN3CCc4cc(-n5cnnn5)cc(F)c43)nc2)CC1 [Example 38, tert-Butyl 4-[2-[7-fluoro-5-(tetrazol-1-yl)indolin-1-ylmethyl]pyridin-5-yl]piperidine-1-carboxylate]
25 | excellent GPR119 agonist effect | CC(C)(C)OC(=O)N1CCC(c2ccc(Cn3ccc4cc(-n5cnnn5)cc(F)c43)nc2)CC1 [Example 41, tert-Butyl 4-[2-[7-fluoro-5-(tetrazol-1-yl)indol-1-ylmethyl]pyridin-5-yl]piperidine-1-carboxylate]
